Measured values taken from patent US10026660B2, “Method of etching the back of a wafer to expose TSVs” (priority 2014, dated 2018).

System: rat
Assay: Rat dermal exposure toxicity (LD50)
Conditions: rat dermal exposure (skin contact)
Source text: LD50 is the dosage for 50% or more of test rats to […] after skin contact with the test chemicals in a given time. Generally, the higher the LD50, the less toxic the chemical.

With `C[N+](C)(C)C.[OH-]` [TMAH, Tetramethylammonium hydroxide] the LD50 was 157 mg/kg.
